These are literature values, as cited in patent US9592318B2, “Topical analgesic composition” (Animal Ethics Pty Ltd, priority 2005, dated 2017).

For one series, the system named is significant open wound. The following applies: topical, FIG. 2 area '3'.
The conditions of series [1]: following injection.

As to `CCN(CC)CC(=O)Nc1c(C)cccc1C` [Lignocaine], in the series with significant open wound, the “duration of anesthesia of open wound” value is given as “around 30 minutes”.
As to `CCCCN1CCCCC1C(=O)Nc1c(C)cccc1C` (centres unmarked) [bupivacaine], in series [1], the duration of action was 6 to 8 h.
